From patent publication US20160106439A1, “PNEUMATIC TOURNIQUET” (BIONUMERIK PHARMACEUTICALS, INC., priority 2013, published 2016)
Entries after “also recorded” stand apart in the source; their conditions may differ. Read-outs that look alike come from different tables or passages of the source.

Assays:
ROS1 kinase = ROS1 kinase (Homo sapiens, UniProt P08922); conditions: for effect on crizotinib inhibition of ROS1 kinase activity: ATP and polyGT
Method: The substrate that was phosphorylated by the kinase, polyglutamate-tyrosine (PolyGT), was purchased from Sigma (P0275, lot 120M5007V).
All other reagents were purchased from Sigma Aldrich. A Tecan Ultra microplate reader with XFluor4 software (Tecan, V4.51) and RdrOle software (Tecan, V4.50) were used in this study.
ROS1 kinase phosphorylated the polyGT substrate using the ATP cofactor and produced ADP. […] The reactions, in microtubes, were incubated for 60 minutes at 25° C. in a water bath. Following this 60 minute incubation, 10 μL aliquots were transferred to microplates and the kinase activity was evaluated using the Promega ADP-glo system that monitored, in an endpoint assay, ADP produced when ROS1 kinase phosphorylated the PolyGT substrate.
It should be noted that numerous controls were tested and included the assay components indicated in the columns of Table 10 below (where + indicates the component was included and an empty space indicates it was not included).
The Kinase Assays, as described in Section II above, were run in triplicate or quadruplicate in microplates. Following these assays, the ADP-glo detection system (Promega) was used to determine how much ADP had been produced.
For 10 μL volume assays, to each microplate well containing 10 μL of kinase reaction was added ADP-glo reagent (10 μL), the microplates were spun in a table top centrifuge (1000 rpm (123×g) for 1 minute) to ensure that no reagent remained on the walls of the individual wells, and then agitated for 1 minute to ensure optimal mixing. The microplates were incubated at 25° C. on a heat block for 40 minutes. Kinase detection reagent (20 μL) was then added and, as above, centrifugation and agitation was repeated; with the microplates being allowed to incubate at 25° C.±1° C. on a heat block for 40 minutes. Following the incubation of the kinase detection reagent, the microplates were read on a Tecan Ultra microplate reader. The Tecan Ultra contained a built-in plate definition file for the whole area 96-well, white Corning microplates; however a microplate definition file for the half area 96-well Corning plates was created using the RdrOle component of the Tecan Ultra software.
Therefore, each mole of PolyGT polymer of 20,000 g/mole would contain approximately 28 moles of the glu-glu-glu-glu-tyr “subpolymer.”
Typically, a 10 μL assay volume would contain 2 μg of the polyGT substrate. Assuming the lower polymer mass of 20,000 g/mol mass, this translates to approximately 10 μM polyGT per assay and […] glu-glu-glu-glu-tyr “subpolymer” per assay.
Data from ROS1 kinase assays run on the Tecan Ultra microplate spectrophotometer were collected in Microsoft Excel. Error calculations and graphical representations were performed in Microsoft Office Excel (Microsoft Corporation, Redmond, Wash., USA). Determination of IC25, IC50 and IC75 values were accomplished using Origin Lab software (OriginLab Corporation, Northampton, Mass., USA).

thioredoxin = molecular target: T1, thioredoxin (Homo sapiens, UniProt P10599); assay: LC-MS of thioredoxin incubations; assay type: binding; conditions: ion at m/z 1288.3
T1 construct: purchased Sigma (SigmaAldrich); host or cells: E. coli

TrxR/Trx system = molecular target: T2, TrxR/Trx system (Homo sapiens, UniProt P10599); assay: NADPH oxidation by TrxR and Trx; assay type: biochemical; conditions: increasing concentrations of the substance
T2 construct: 6xHis (N); purchased Sigma (Trx); American Diagnostica (bovine TrxR)
T2 sequence (P10599 1-105): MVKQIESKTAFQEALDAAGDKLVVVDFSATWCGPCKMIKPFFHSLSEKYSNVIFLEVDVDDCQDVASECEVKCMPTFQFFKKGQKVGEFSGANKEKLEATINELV

RNR subunit 1 = RNR subunit 1 (Homo sapiens, UniProt P23921); assay: Whole protein MS of RNR subunit 1; assay type: binding; conditions: whole protein Mass Spectroscopy
Sequence of RNR subunit 1 (P23921 whole entry): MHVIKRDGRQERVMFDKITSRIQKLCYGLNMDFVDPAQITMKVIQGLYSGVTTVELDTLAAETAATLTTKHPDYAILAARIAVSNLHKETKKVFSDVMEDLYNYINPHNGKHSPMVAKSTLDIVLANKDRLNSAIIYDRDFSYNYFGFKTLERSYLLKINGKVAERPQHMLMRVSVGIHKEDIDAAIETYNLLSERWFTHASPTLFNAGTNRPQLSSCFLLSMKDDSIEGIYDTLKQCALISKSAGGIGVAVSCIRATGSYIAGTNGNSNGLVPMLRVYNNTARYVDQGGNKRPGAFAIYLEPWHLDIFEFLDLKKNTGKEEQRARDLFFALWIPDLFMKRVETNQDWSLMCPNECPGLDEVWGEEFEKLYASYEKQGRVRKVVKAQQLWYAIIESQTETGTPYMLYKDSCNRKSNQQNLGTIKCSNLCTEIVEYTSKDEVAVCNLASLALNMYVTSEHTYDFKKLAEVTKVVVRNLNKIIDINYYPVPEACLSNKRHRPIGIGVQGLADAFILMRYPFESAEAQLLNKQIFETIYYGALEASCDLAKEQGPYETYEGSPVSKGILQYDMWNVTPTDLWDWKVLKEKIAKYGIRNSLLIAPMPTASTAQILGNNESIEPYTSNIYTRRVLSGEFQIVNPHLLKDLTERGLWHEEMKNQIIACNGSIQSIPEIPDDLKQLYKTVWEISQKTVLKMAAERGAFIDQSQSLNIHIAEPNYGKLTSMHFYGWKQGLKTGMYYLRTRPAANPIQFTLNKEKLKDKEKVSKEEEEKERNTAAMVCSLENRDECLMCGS
Source text: RNR1 contains a total of sixteen (16) cysteine residues and at least five (5) of these cysteine residues are required for catalysis, including: Cys218, Cys429, Cys444, Cys787, and Cys790. It is hypothesized that the Tavocept-derived mesna adducts identified on the RNR1 protein using whole protein Mass Spectroscopy (see, FIG. 49) may alter or modulate RNR activity.

Sequence of ROS1 kinase (P08922 1883-2347): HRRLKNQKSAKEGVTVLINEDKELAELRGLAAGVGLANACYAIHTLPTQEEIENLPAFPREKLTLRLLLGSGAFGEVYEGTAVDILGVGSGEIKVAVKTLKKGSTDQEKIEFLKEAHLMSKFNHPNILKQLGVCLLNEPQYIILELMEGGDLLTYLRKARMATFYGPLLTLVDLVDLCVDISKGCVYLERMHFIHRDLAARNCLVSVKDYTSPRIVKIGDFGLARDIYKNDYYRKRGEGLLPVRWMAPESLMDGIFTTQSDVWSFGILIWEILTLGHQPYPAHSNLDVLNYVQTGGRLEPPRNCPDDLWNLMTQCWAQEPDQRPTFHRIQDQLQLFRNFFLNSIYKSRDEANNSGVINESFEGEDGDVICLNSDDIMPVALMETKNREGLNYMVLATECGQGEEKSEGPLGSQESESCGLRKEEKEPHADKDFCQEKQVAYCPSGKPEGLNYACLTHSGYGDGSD

Compound: O=S(=O)([O-])CCSSCCS(=O)(=O)[O-].[Na+].[Na+] [Tavocept, disodium 2,2′-dithio-bis-ethane sulfonate]
- loss of ROS1 kinase activity (ROS1 kinase; 5 mM Tavocept incubated with ROS1 for 24 hours prior to ATP and polyGT, 100 μM ATP): 15%
- loss of ROS1 kinase activity (ROS1 kinase; 10 mM Tavocept incubated with ROS1 for 3 hours prior to ATP and polyGT, 100 μM ATP): 16%
- loss of ROS1 kinase activity (ROS1 kinase; 10 mM Tavocept incubated with ROS1 for 24 hours prior to ATP and polyGT, 100 μM ATP): 31%
- loss of ROS1 kinase activity (ROS1 kinase; 20 mM Tavocept incubated with ROS1 for 3 hours prior to ATP and polyGT, 100 μM ATP): 26%
- loss of ROS1 kinase activity (ROS1 kinase; 20 mM Tavocept incubated with ROS1 for 24 hours prior to ATP and polyGT, 100 μM ATP): 48%
- effect on ROS1 kinase activity (ROS1 kinase; Tavocept (2.5-20 mM) added simultaneously with ATP and polyGT): did not have a notable effect; also recorded: no discernible
- effect on crizotinib inhibition of ROS1 kinase activity (ROS1 kinase; Tavocept (2.5 to 20 mM) incubated with ROS1 for 3 or 24 hours prior to crizotinib): additive manner
- effect on crizotinib inhibition of ROS1 kinase activity (ROS1 kinase; Tavocept (2.5 to 20 mM) incubated with ROS1 for 3 or 24 hours prior to crizotinib, listed as BNP7787): additive effect
- effect on crizotinib inhibition of ROS1 kinase activity (ROS1 kinase; Tavocept added simultaneously with crizotinib, 100 μM ATP): did not affect; also recorded: no discernible
- mesna adduct on thioredoxin fragment CMPTFQFFK (thioredoxin): Cys73-mesna adduct
- NADPH oxidation by TrxR and Trx (TrxR/Trx system): increases
- number of Tavocept-derived mesna adducts on RNR1 cysteine residues (RNR subunit 1): ≤ 8
